Measured values taken from patent publication US8871280B1, “Compositions and methods for treating fungal activity in plants or soil” (The United States of America, as represented by the …, priority 2011, dated 2014).

Tests used:
cucumber seeds = test: Greenhouse assay of seed germination and phytotoxicity, soil treated with plant extract alone; details: cucumber, in vivo, 0.3 % of PE in soil (3000 ppm)
Procedure: Soil treatment: For each treatment, 300 g of dry greenhouse soli (Pro-mix, Premier Horticulture LTD, Red Hill, Pa.) was thoroughly mixed with Rhizoctonia inoculum and incubated for 15 days as described above. […] The infested soil treated with only the carrier solution served as an untreated control. Following the treatment, the soil was thoroughly stirred to mix the contents and incubated in a double polythene bag closed tightly in the dark at room temperature for four days for fumigation to occur. Following the incubation, the bag was opened to allow as much PE to dissipate as possible. This was done by sprinkling the surface soil with sterile water every other day, and stirring the soil once every day for seven days. For assay of effect on seed germination and phytotoxicity of the plant extracts, soil was treated with plant extract formulations alone.
Greenhouse studies: Treated soil from each treatment was distributed to 4-inch plastic pots into which 12 seeds of cucumbers (95-100% germination) were sown and lightly watered to keep soil moist. The treatments were color coded and pots were randomized across treatment. All plants were kept in a greenhouse between 20° C. (night) to 26° C. (day) with 14 h of light. There were three pots per treatment in each experiment, and the experiment was repeated three times. As positive control, a broad spectrum popular soil fungicide Banrot® 40 WP (The Scotts Company, Ohio) was used following manufacturer's recommendation to control the disease. Total number of seedlings without any sign of damping off in each pot was recorded and percentage of disease suppression were calculated four weeks after sowing cucumber seeds.

Rhizoctonia solani [1] = test: Poison food technique (contact action), mycelial growth inhibition in PDA; assay type: cell-based, Rhizoctonia solani AG-4, isolate Rs 23A; details: for PoisonB1 % inhibition: poison bed experiment 1; for PoisonB2 % inhibition: poison bed experiment 2
Procedure: (§1) Fungal isolate and preparation of inoculum: Rhizoctonia solani AG-4, isolate Rs 23A is a highly virulent pathogenic isolate which infects many vegetables, ornamentals and turfgrasses (Lewis, J. A., and G. C. Papavizas, Soil Biology and Biochemistry, 9:195-201 (1987)). The fungus was grown in potato dextrose agar (PDA) plates and fungal plugs from the freshly growing mycelium were mixed with moist sterilized cracked wheat in a 2 L flask for 15 days in dark at 22° C. (Lakshman, D. K., et al., Proceedings of the National Academy of Science, USA, 95: 6425-6429 (1998)). The infested wheat was air dried in a sterile hood for 3 days, blended in a homogenizer and sieved through a mesh and stored at 2° C. before soil inoculation. A dose response of the inocula was carried out by thoroughly mixing using 0.25, 0.5, 0.75, 1.0, 1.25 and 1.50 g inoculums per Kg dry weight potting soil plus sterile water to maintain 25-30% moisture and incubating at room temperature for two weeks before sowing cucumber (cv muncher) seeds with the infested soil. The percent germination and post-emergence damping off of cucumber seedlings were recorded. The lowest inoculums dose that induced 100% postemergence damping off was estimated to be 1 to 1.25 g/Kg soil for inocula prepared over the span of the experiments. For soil fumigation with plant extracts (PEs), each time the minimum inoculum dose giving rise to 100% damping off was used.
In vitro bioassays: Two in vitro bioassay methods were used to investigate the mycelial growth inhibitory potentials of PEs. In the poison food technique, test chemical/plant extract was mixed at concentrations of 15, 30, 45, 60, 75, and 150 μl per 20 ml autoclaved PDA at 50° C., poured on three sterile disposable plastic plates (100×15 mm, Fisherbrand) at 20 ml/plate and cooled to room temperature to solidify (Dhingra, O.D., and J. B. Sinclair, 1995, Basic Plant Pathology Methods, 2nd Edition, Lewis Publishers, Boca Raton and London). […] Each plate was seeded in the center with a 5 mm diameter agar disk of the freshly grown Rhizoctonia pathogen, mycelial side facing the medium, and sealed with stretched Parafilm® M (Fisher Scientific). The plates were incubated in the dark at room temperature and when the pathogen reached to the edge of the plates in the control treatment (soybean oil), radial measurement of fungal growth in plates treated with PEs were recorded by taking three measurements from each plate. The experiment was repeated one more time. The percent mycelial growth inhibition (MGI) due to PE was calculated using the following formula: […] where dc=Avg. radial growth in mm of pathogen in control plate; dt=avg. radial growth in mm of pathogen in treated plate.

Rhizoctonia solani [2] = test: Greenhouse suppression of damping off of cucumber seedlings in R. solani infested soil amended with plant extract; assay type: in vivo, Rhizoctonia solani AG-4, isolate Rs 23A
Rhizoctonia solani [3] = test: Fungicidal vs fungistatic potential (regrowth of mycelial plugs on fresh PDA, 7 days); assay type: cell-based, Rhizoctonia solani AG-4, isolate Rs 23A
Procedure: The fungicidal and fungistatic potential of the PEs were determined by the method described by Garber and Houstan (Garber R. H., and B. R. Houston, Phytopathology, 49: 449-450 (1959)). In brief, three 5 mm diameter plugs were taken from the peripheral mycelial growth from each plate and placed in a fresh PDA plate. Following incubation at room temperature for 7 days, observations were recorded for new mycelial growth (fungistatic) or no mycelial growth (fungicidal). As control, peripheral mycelial plugs from soybean oil amended PDA plates were checked for fresh mycelial growth in fresh PDA plates.

Rhizoctonia solani [4] = test: Filter disk fumigation method, mycelial growth inhibition on PDA; assay type: cell-based, Rhizoctonia solani AG-4, isolate Rs 23A; details: for Fumig1 % inhibition: fumigation experiment 1; for Fumig2 % inhibition: fumigation experiment 2
Procedure: as §1
In the second protocol, the chemical was kept not in direct contact with the fungus and we hypothesized that the plant extract will most likely influence the growth of the pathogen by fumigation action. In this approach, three sterile 15 mm filter paper (Whatman International Ltd, Maidstone, UK) disks were placed on the edge of each of three plates on the PDA. Each disk was impregnated in the center with various amounts (5-50 ul/disk) of the test solution/suspension. For negative control, only soybean oil was placed in the filter disk. […] The average radial growth was calculated and the experiment was repeated one more time. Percent growth inhibition was calculated as reported for poison bed assay.

Compound: Cc1ccc(C(C)C)c(O)c1 [Thymol]
- Avg. seed germination (+ PE only) (cucumber seeds): 8.00
- PoisonB1 % inhibition (Rhizoctonia solani [1]; amount oil 15 μL/20 mL plate): 100%
- PoisonB2 % inhibition (Rhizoctonia solani [1]; amount oil 15 μL/20 mL plate): 42%
- PoisonB1 % inhibition (Rhizoctonia solani [1]; amount oil 30 μL/20 mL plate): 100%
- PoisonB2 % inhibition (Rhizoctonia solani [1]; amount oil 30 μL/20 mL plate): 100%
- PoisonB1 % inhibition (Rhizoctonia solani [1]; amount oil 45 μL/20 mL plate): 100%
- PoisonB2 % inhibition (Rhizoctonia solani [1]; amount oil 45 μL/20 mL plate): 100%
- PoisonB1 % inhibition (Rhizoctonia solani [1]; amount oil 60 μL/20 mL plate): 100%
- PoisonB2 % inhibition (Rhizoctonia solani [1]; amount oil 60 μL/20 mL plate): 100%
- PoisonB1 % inhibition (Rhizoctonia solani [1]; amount oil 75 μL/20 mL plate): 100%
- PoisonB2 % inhibition (Rhizoctonia solani [1]; amount oil 75 μL/20 mL plate): 100%
- PoisonB1 % inhibition (Rhizoctonia solani [1]; amount oil 150 μL/20 mL plate): 100%
- PoisonB2 % inhibition (Rhizoctonia solani [1]; amount oil 150 μL/20 mL plate): 100%
- % Disease suppression (+ PE + R. solani) (Rhizoctonia solani [2]; cucumber damping off, soil amendment at 0.3% (v/w), four weeks after sowing): 27.75%
- Avg. seed Germination (+ PE + R. solani) (Rhizoctonia solani [2]; cucumber, 12 seeds sown per pot, infested soil amended with 0.3% PE): 3.33
- Effect (fumigation) (Rhizoctonia solani [3]; amount oil 15 μL/20 mL plate): S
- Effect (poison bed, contact action) (Rhizoctonia solani [3]; amount oil 15 μL/20 mL plate): S
- Effect (fumigation) (Rhizoctonia solani [3]; amount oil 30 μL/20 mL plate): S
- Effect (poison bed, contact action) (Rhizoctonia solani [3]; amount oil 30 μL/20 mL plate): S
- Effect (fumigation) (Rhizoctonia solani [3]; amount oil 45 μL/20 mL plate): S
- Effect (poison bed, contact action) (Rhizoctonia solani [3]; amount oil 45 μL/20 mL plate): S
- Effect (fumigation) (Rhizoctonia solani [3]; amount oil 60 μL/20 mL plate): S
- Effect (poison bed, contact action) (Rhizoctonia solani [3]; amount oil 60 μL/20 mL plate): S
- Effect (fumigation) (Rhizoctonia solani [3]; amount oil 75 μL/20 mL plate): S
- Effect (poison bed, contact action) (Rhizoctonia solani [3]; amount oil 75 μL/20 mL plate): S
- Effect (fumigation) (Rhizoctonia solani [3]; amount oil 150 μL/20 mL plate): S
- Effect (poison bed, contact action) (Rhizoctonia solani [3]; amount oil 150 μL/20 mL plate): S
- Fungicidal vs fungistatic nature (Rhizoctonia solani [3]; in vitro, fumigation and contact action): fungistatic
- Fumig1 % inhibition (Rhizoctonia solani [4]; amount oil 15 μL/20 mL plate): 77%
- Fumig2 % inhibition (Rhizoctonia solani [4]; amount oil 15 μL/20 mL plate): 91%
- Fumig1 % inhibition (Rhizoctonia solani [4]; amount oil 30 μL/20 mL plate): 86%
- Fumig2 % inhibition (Rhizoctonia solani [4]; amount oil 30 μL/20 mL plate): 93%
- Fumig1 % inhibition (Rhizoctonia solani [4]; amount oil 45 μL/20 mL plate): 90%
- Fumig2 % inhibition (Rhizoctonia solani [4]; amount oil 45 μL/20 mL plate): 94%
- Fumig1 % inhibition (Rhizoctonia solani [4]; amount oil 60 μL/20 mL plate): 89%
- Fumig1 % inhibition (Rhizoctonia solani [4]; amount oil 75 μL/20 mL plate): 93%
- Fumig1 % inhibition (Rhizoctonia solani [4]; amount oil 150 μL/20 mL plate): 96%
